Read-outs that look alike come from different tables or passages of the source.
Experiments:
[1] = molecular target: T1, mMATE1 (Mus musculus, UniProt Q8K0H1); test: Inhibition of RI-labeled TEA uptake in HEK293 cells expressing mMATE1; assay type: cell-based; details: for remaining activity at 1000 µM: compound 1 mM;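 on all read-outs here: transfected HEK293 cells held 5 min at 37 °C before tracer addition, uptake read as radioactivity retained on a 0.45-µm membrane filter, mean ± SD of three to nine experiments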
T1 construct: expressed in transfected cells; host or cells: HEK293
T1 sequence (Q8K0H1 with tags, fused parts or gaps): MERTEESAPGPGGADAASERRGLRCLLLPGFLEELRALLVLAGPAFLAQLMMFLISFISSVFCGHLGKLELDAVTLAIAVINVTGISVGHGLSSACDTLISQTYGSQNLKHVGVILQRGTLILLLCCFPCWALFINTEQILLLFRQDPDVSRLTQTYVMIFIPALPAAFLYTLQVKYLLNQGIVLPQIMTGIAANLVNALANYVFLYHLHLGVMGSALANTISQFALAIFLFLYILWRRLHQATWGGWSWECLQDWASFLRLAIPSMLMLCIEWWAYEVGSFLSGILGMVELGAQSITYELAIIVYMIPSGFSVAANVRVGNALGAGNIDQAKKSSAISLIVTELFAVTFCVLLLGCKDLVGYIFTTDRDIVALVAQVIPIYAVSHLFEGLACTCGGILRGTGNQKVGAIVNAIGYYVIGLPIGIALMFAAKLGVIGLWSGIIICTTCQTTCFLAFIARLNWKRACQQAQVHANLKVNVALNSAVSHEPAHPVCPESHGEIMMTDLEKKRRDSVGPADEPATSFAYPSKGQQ

[2] = molecular target: T2, hMATE1 (Homo sapiens, UniProt Q96FL8); test: Inhibition of RI-labeled TEA uptake in HEK293 cells expressing hMATE1; details: for Inhibition of TEA uptake activity (in words, summary of Table 1): MATE1 expressing HEK293 cells, 50 μM TEA, pH 8.0
T2 sequence (Q96FL8 1-570): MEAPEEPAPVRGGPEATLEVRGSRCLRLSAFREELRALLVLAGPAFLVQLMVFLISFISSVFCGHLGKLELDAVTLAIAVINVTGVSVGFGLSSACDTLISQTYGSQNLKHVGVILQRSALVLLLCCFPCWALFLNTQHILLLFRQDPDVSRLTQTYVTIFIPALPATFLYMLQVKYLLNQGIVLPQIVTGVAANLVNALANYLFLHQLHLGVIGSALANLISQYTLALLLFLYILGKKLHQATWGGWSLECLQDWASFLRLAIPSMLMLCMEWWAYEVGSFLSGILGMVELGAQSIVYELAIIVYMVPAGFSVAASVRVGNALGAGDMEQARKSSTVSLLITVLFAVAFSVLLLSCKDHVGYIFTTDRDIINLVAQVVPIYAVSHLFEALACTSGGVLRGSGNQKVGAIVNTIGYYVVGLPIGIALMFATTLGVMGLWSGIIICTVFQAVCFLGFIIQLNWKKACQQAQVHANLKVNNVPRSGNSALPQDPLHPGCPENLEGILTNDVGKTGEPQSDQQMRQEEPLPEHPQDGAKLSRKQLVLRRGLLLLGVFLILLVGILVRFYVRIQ

[3] = 50 μM RI-labeled TEA, pH 8.0, HEK293 cells expressing mMATE1, read-out: TEA uptake activity percent taking the level with addition of no compound as 100% (% ± S.D.)
[4] = compound 1 mM, 50 μM RI-labeled TEA, pH 8.0, HEK293 cells expressing hMATE1
[5] = HEK293, pH 8, read-out: TEA uptake activity percent taking the level with addition of no compound as 100% (% ± S.D.)
[6] = compound 0.1 mM, 50 μM RI-labeled TEA, pH 8.0, HEK293 cells expressing hMATE1
[7] = compound 0.1 mM, 50 μM RI-labeled TEA, pH 8.0, HEK293 cells expressing mMATE1, read-out: TEA uptake activity percent taking the level with addition of no compound as 100% (% ± S.D.)
[8] = compound 0.01 mM, 50 μM RI-labeled TEA, pH 8.0, HEK293 cells expressing hMATE1
[9] = compound 10 mM, 50 μM RI-labeled TEA, pH 8.0, HEK293 cells expressing mMATE1

| Compound | TEA uptake activity percent taking the level with addition of no compound as 100% (% ± S.D.) [2, 6] | remaining activity at 100 µM [1, 7] | Inhibition of TEA uptake activity (in words, summary of Table 1) [2] | TEA uptake activity percent taking the level with addition of no compound as 100% (% ± S.D.) [2, 8] | also measured |
| --- | --- | --- | --- | --- | --- |
| CCCN(CCC)S(=O)(=O)c1ccc(C(=O)O)cc1 [Probenecid] | – | – | – | – | remaining activity at 1000 µM [1, 3]: 93.7 ± 11.9%; TEA uptake activity percent taking the level with addition of no compound as 100% (% ± S.D.) [2, 4]: 108.5 ± 7.9% |
| CCN(CC)CCNC(=O)c1ccc(N)cc1 [Procainamide] | 62.6 ± 0.8% | – | – | – | remaining activity at 100 µM [1, 5]: 65.7 ± 8.2% |
| CC(=O)[C@H]1CC[C@H]2[C@@H]3CCC4=CC(=O)CC[C@]4(C)[C@H]3CC[C@]12C [Progesterone] | 31.7 ± 5.6% | 9.3 ± 1.6% | inhibited | – | – |
| O=c1c(O)c(-c2ccc(O)c(O)c2)oc2cc(O)cc(O)c12 [Quercetin] | 28.2 ± 3.1% | 47.1 ± 0.1% | inhibited | – | – |
| C=C[C@H]1C[N@@]2CC[C@H]1C[C@@H]2[C@@H](O)c1ccnc2ccc(OC)cc12 [Quinidine] | 0.0 ± 4.2% | 26.6 ± 7.3% | strongly inhibited | 35.0 ± 2.1% | remaining activity at 10 µM ([1]; compound 0.01 mM, 50 μM RI-labeled TEA, pH 8.0, HEK293 cells expressing mMATE1, read-out: TEA uptake activity percent taking the level with addition of no compound as 100% (% ± S.D.)): 74.7 ± 9.8%; remaining activity at 50 µM ([1]; compound 0.05 mM, 50 μM RI-labeled TEA, pH 8.0, HEK293 cells expressing mMATE1, read-out: TEA uptake activity percent taking the level with addition of no compound as 100% (% ± S.D.)): 50.3 ± 5.4%; TEA uptake activity percent taking the level with addition of no compound as 100% (% ± S.D.) ([2]; compound 0.05 mM, 50 μM RI-labeled TEA, pH 8.0, HEK293 cells expressing hMATE1): 5.1 ± 8.9% |
| O=C(O)c1ccccc1O [Salicylate] | – | – | – | – | TEA uptake activity percent taking the level with addition of no compound as 100% (% ± S.D.) [1, 9]: 92.4 ± 4.3%; TEA uptake activity percent taking the level with addition of no compound as 100% (% ± S.D.) ([2]; pH 8): 97.8 ± 4.8% |
| O=C(O)CCC(=O)O [Succinate] | – | – | – | – | TEA uptake activity percent taking the level with addition of no compound as 100% (% ± S.D.) [1, 9]: 95.1 ± 6.3%; TEA uptake activity percent taking the level with addition of no compound as 100% (% ± S.D.) ([2]; compound 10 mM, 50 μM RI-labeled TEA, pH 8.0, HEK293 cells expressing hMATE1): 108.1 ± 4.2% |
| C[C@]12CC[C@H]3[C@@H](CCC4=CC(=O)CC[C@@]43C)[C@@H]1CC[C@@H]2O [Testosterone] | 38.8 ± 3.2% | – | inhibited | 64.5 ± 14.7% | remaining activity at 1 µM [1, 5]: 67 ± 8.7%; remaining activity at 10 µM [1, 5]: 44.7 ± 3%; remaining activity at 100 µM [1, 5]: 11.5 ± 1.1%; TEA uptake activity percent taking the level with addition of no compound as 100% (% ± S.D.) ([2]; compound 0.001 mM, 50 μM RI-labeled TEA, pH 8.0, HEK293 cells expressing hMATE1): 99.6 ± 4.3% |
| O=c1[nH]c(=O)c2[nH]c(=O)[nH]c2[nH]1 [Uric acid] | – | – | not inhibited | – | remaining activity at 1000 µM [1, 3]: 109 ± 6.4%; TEA uptake activity percent taking the level with addition of no compound as 100% (% ± S.D.) [2, 4]: 107.8 ± 2.7% |
| Rhodamine 123 [Rhodamine123] | – | – | inhibited | 5.0 ± 6.4% | TEA uptake activity percent taking the level with addition of no compound as 100% (% ± S.D.) ([1]; compound 0.01 mM, 50 μM RI-labeled TEA, pH 8.0, HEK293 cells expressing mMATE1): 0.5 ± 6.2% |

— patent US8278032B2, “Transporter protein in mammal and utilization of the same” (priority 2005, dated 2012)
